Reference: PMC7478952 (Pharmaceutical Research, 2020)

Legend:
[1] = Translated human PK model (single species allometric scaling from rats)
Experimental: (§1) The translational modeling steps from the mouse PK/TO/PD model to that for humans are as follows; 1) PK model was replaced by the human PK model predicted from rats with single species allometric scaling approach(6). […] The differential equations of translated human PK/TO/PD model are shown in Eq. S12-S14, 2 and 5. […] The model parameters used for simulation are summarized in Supplementary table 2.
(§2) C1 is calculated by A1/V1. […] Imax represents maximum inhibitory effect of TO on Kout.

[2] = target: T1, breast cancer resistance protein (BCRP) (Homo sapiens, UniProt Q9UNQ0); assay: BCRP substrate assessment; format: in vitro ADME
T1 sequence (Q9UNQ0 1-655): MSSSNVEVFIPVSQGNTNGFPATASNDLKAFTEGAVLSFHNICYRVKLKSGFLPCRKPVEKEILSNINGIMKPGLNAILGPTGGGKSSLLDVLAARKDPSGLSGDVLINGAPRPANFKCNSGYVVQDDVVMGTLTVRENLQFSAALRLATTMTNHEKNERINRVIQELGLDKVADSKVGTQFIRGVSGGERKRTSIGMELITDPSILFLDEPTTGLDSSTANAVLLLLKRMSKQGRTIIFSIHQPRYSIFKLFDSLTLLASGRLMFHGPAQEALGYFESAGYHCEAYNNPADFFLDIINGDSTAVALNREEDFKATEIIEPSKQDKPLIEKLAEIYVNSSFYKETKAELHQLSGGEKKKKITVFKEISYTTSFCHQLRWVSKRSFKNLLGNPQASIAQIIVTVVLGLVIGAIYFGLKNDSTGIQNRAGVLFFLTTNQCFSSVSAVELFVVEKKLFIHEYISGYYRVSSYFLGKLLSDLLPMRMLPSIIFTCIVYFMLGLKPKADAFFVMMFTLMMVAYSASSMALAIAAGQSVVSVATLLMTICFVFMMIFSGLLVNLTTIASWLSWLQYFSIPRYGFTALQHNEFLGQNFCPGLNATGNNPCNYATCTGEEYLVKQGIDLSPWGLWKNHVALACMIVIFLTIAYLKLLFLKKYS

[3] = Free fraction of TAK-831 in mouse plasma; format: in vitro ADME; details: read-out: fp free fraction in mouse plasma
[4] = target: T2, D-amino acid oxidase (DAAO) (Mus musculus, UniProt P18894); assay: Cerebellum target occupancy of DAAO measured by displacement of tracer PGM019260 (mechanistic binding kinetics model); format: in vivo, C57BL/6 J mice
T2 construct: from tissue
Experimental: (§3) PGM019260 was formulated in 5% dimethyl sulfoxide and 95% v/v of 20% w/v 2-hydroxypropyl-β-cyclodextrin. […] After 2, 4, 6, 8, 10 and 24 h from oral administration, PGM019260 at 60 μg/kg was administered by intravenous route (i.v.) with a dose volume of 1 mL/kg (n = 4). Mice were sacrificed 20 min after tracer dosing. Blood was collected into heparin containing tubes and plasma was separated.
(§4) The grand mean value of tracer concentration in vehicle treatment group calculated from all the time points (2, 4, 6, 8, 10 and 24 h after vehicle treatment) was used as the baseline of tracer concentration across all the time points. […] The differential equations of PK/TO/PD model are shown below (Eqs. 1, 2 and 5). […] 4 and 6, respectively.1 dAp/dt=−CLp/Vp·Ap 2 dTO/dt=Kon·BRmax−TO·Cp−Koff·TO 3 Tracer concentration=BLtr·1−TO 4 In vivoKd=Koff/Kon×fp 5 dPD/dt=Kin−Kout·BRmax−Imax·TO 6 Kin=BL·Kout
(§5) The convergence criterion was three significant digits.

[5] = Plasma PK of TAK-831 after single oral administration in mice (target occupancy study, 1-compartment model); format: in vivo, C57BL/6 J mice
Experimental: as §3, §4, §5

D-serine in cerebellum [6] = assay: Translated human PD model (D-serine in cerebellum); details: taken from the mouse model
Experimental: as §1, §2

in vivo = details: mouse
Experimental: Mice were sacrificed (n = 2) 0.25, 0.5, 1, 2, 4, 8 and 24 h after p.o. dosing. Blood was collected with heparinized syringe and plasma was separated. Three separate brain regions (cerebellum, front and back part of cerebrum) were isolated. The radioactivity in plasma and brain regions was measured by liquid scintillation counter. […] Plasma and whole brain homogenate samples were processed for metabolite profiling by HPLC with on-line radioisotope detector or liquid scintillation counter.

[7] = tested on: cerebellar-based associative learning; details: mice; cited from earlier work
D-serine in cerebellum [8] = details: cited from earlier work
[9] = Free fraction of TAK-831 in human plasma; format: in vitro ADME; details: read-out: fp,human free fraction in plasma
P-glycoprotein (P-gp) = P-glycoprotein (P-gp) (Homo sapiens, UniProt P08183); assay: P-glycoprotein substrate assessment; format: in vitro ADME
novel object recognition = details: cited from earlier work
DAAO [10] = target: DAAO (Homo sapiens, UniProt P14920); assay: Inhibition of DAAO activity in vitro; format: biochemical
DAAO [11] = details: human, taken from the mouse model
Experimental: as §1, §2

[12] = tested on: social interaction (model of negative symptoms); details: Balb/c mice; cited from earlier work
DAAO [13] = tested on: DAAO; parameters: method as in PMID 28780732; details: pre-treatment; cited from earlier work
human DAAO = tested on: human DAAO; parameters: method as in PMID 28780732; details: cited from earlier work
mouse DAAO = tested on: mouse DAAO; parameters: method as in PMID 28780732; details: cited from earlier work

T2 sequence (P18894 whole entry): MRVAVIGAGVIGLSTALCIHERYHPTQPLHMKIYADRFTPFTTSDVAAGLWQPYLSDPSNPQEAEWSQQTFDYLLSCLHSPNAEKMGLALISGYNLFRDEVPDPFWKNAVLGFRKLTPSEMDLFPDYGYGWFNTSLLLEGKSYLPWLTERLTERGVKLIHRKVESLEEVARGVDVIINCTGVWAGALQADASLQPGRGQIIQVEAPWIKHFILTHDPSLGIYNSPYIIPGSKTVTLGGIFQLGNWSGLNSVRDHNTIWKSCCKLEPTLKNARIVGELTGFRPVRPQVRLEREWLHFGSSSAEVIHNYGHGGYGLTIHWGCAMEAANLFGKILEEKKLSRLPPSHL
DAAO (Homo sapiens, UniProt P14920), sequence (P14920 whole entry, species assumed): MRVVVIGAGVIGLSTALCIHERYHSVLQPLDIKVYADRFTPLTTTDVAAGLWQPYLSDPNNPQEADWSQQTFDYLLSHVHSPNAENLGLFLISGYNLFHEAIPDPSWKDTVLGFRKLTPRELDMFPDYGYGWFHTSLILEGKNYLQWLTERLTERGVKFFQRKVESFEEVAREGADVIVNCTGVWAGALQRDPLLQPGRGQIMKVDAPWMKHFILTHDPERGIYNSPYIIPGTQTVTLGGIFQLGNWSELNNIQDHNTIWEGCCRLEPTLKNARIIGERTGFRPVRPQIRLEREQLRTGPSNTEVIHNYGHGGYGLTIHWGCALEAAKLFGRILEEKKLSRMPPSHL
P-glycoprotein (P-gp), sequence (P08183 whole entry): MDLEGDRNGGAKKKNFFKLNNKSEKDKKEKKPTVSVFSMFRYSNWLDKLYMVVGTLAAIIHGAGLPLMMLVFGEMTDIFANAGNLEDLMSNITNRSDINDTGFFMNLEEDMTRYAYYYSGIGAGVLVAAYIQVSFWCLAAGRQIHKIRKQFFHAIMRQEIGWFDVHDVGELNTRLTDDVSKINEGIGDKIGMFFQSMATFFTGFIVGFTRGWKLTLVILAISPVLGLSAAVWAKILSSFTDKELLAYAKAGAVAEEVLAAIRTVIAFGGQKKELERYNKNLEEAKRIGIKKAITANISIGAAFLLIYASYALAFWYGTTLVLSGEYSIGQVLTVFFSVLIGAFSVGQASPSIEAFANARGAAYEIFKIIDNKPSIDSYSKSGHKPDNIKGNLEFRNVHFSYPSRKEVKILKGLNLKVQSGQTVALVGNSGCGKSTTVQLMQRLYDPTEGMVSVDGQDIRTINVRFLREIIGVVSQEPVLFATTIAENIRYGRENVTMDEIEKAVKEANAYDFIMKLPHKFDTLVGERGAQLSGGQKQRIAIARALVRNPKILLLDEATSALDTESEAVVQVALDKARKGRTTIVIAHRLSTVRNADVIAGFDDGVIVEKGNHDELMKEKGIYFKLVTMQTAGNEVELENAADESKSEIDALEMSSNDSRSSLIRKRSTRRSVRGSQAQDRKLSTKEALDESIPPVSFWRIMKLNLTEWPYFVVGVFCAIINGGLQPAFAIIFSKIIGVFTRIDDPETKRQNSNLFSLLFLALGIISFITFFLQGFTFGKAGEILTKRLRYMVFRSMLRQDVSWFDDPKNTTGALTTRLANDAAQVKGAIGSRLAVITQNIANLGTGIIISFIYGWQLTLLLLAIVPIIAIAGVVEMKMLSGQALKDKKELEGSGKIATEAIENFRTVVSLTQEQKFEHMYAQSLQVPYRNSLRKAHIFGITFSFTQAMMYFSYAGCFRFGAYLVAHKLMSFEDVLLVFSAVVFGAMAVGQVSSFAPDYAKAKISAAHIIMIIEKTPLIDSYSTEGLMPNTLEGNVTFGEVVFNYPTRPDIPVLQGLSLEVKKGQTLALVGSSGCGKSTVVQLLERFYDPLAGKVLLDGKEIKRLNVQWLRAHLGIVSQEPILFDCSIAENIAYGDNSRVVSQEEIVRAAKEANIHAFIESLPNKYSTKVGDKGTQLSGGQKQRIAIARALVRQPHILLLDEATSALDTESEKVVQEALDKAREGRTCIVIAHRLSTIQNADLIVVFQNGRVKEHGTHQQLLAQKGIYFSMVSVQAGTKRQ

## O=c1[nH]nc(CCc2ccc(C(F)(F)F)cc2)cc1O [TAK-831, 4-hydroxy-6-{2-[4-(trifluoromethyl)phenyl]ethyl}pyridazin-3(2H)-one]
[1]
  Ka absorption rate constant: 0.218 h⁻¹
[2]
  substrate of breast cancer resistance protein (BCRP): neither a substrate
[3]
  fraction unbound: 0.077
[4]
  Kd: 0.809 nM
[4]; in vivo Kd vs in vitro IC50
  fold by which in vivo Kd is lower than in vitro IC50: about 8 fold
[4]; mice cerebellum, against total plasma concentration, model estimate
  Kon association rate constant: 0.0372 mL/ng/h
[4]; mice cerebellum, model estimate
  BRmax maximum binding ratio: 0.987
[4]; mice, once daily multiple doses, data not shown
  accumulation of PK or TO after once daily multiple doses (empirical, separate studies): no accumulation was observed
[4]; mice, single p.o., tracer PGM019260 in cerebellum
  TAK-831 dosage at which maximum decline of tracer concentration was observed: ≥ 3 mg/kg
[4]; mouse, read-out: Koff dissociation rate constant
  koff: 3.14e-05 s⁻¹
[5]; C57BL/6 J, mouse, plasma, po, single p.o. 0.3-10 mg/kg, model estimate, read-out: CLp oral clearance (converted)
  CL/F: 85.7 mL/min/kg
[5]; C57BL/6 J, mouse, plasma, po, single p.o., first sampling at 2 h
  Tmax: ≤ 2 h
[5]; p.o. dose range 0.3 to 10 mg/kg
  dose dependency of plasma exposure: increased almost dose-proportionally
[5]; single p.o. 0.3-10 mg/kg, model estimate
  Vp apparent volume of distribution: 35.7 L/kg
D-serine in cerebellum [6]
  Imax maximum inhibitory effect: 0.877
In vivo; C57BL/6 J
  Kp: 0.181
  fraction unbound: 0.425
  time by which equilibrium across BBB was reached: ≤ 0.25 h
In vivo
  Kp uu: 1
[7]
  acquisition of the conditioned response: improvement in the acquisition of the conditioned response
  scopolamine induced deficit: reversing the scopolamine induced deficit
D-serine in cerebellum [8]
  D-serine levels in the cerebellum of normal mice: increase D-serine levels
[9]
  fraction unbound: 0.0067
P-glycoprotein (P-gp)
  substrate of P-glycoprotein (P-gp): neither a substrate
Novel object recognition; acute oral dose in mice
  dose at which efficacy was observed: ≥ 0.3 mg/kg
Novel object recognition; range of acute and chronic doses in mice
  identification of the novel object: able to identify the novel object
DAAO [10]; comparison between mouse and human enzyme
  in vitro IC50 values on enzymatic activity, mice vs humans: comparable between mice and humans
DAAO [10]; read-out: 50% inhibitory concentration (IC50) of DAAO activity in vitro (converted)
  IC50: 6.33 nM
DAAO [11]
  BRmax maximum binding ratio: 0.987
[12]
  efficacy in social interaction model: efficacious

## O=C([O-])c1ccccc1.[Na+] [sodium benzoate]
DAAO [13]
  displacement of PGM019260 in the mouse cerebellum: dose dependent displacement

## O=c1[nH]nc(CCc2ccc([14C](F)(F)F)cc2)cc1O [[^14C]TAK-831]
In vivo
  dose dependency of plasma exposure of radioactivity: increased almost dose-proportionally

## COc1ccc(CSc2c[nH]c(=O)c(O)c2)cn1 [PGM019260]
Human DAAO
  DAAO inhibition in human enzyme in vitro: highly potent DAAO inhibition
Mouse DAAO
  DAAO inhibition in mouse enzyme in vitro: highly potent DAAO inhibition
